Data: patent US4613590A, “Amino D-manno-2-octulopyranosidonate containing compounds, pharmaceutical compositions and method of use” (Abbott Laboratories, priority 1985, dated 1986)
Like-named read-outs stand apart in the source and are kept apart here.

What was measured:
[1] = target: CMP-KDO synthetase (Escherichia coli, UniProt P04951); assay: Inhibition of CMP-KDO synthetase activity (colorimetric phosphate); assay type: biochemical, gram-negative bacteria
Protocol: The inhibition of CMP-KDO synthetase activity was measured in reaction mixtures buffered at pH 9.5 containing: 2 mM KDO, 5 mM magnesium cytidine triphosphate, and inorganic pyrophosphatase. The pyrophosphate generated during the course of enzyme reaction was cleaved by the pyrophosphatase to inorganic orthophosphate, the level of which was measured colorimetrically. […] Potency was assessed by determining the level of inhibitor required to inhibit the enzyme reaction by 50% under the conditions of the assay described above (I50). A potent inhibitor is defined as one having an I50 of 1 mM or less.

[2] = test system: Escherichia Coli Juhl; assay: Mouse protection assay, Escherichia Coli Juhl; assay type: in vivo; conditions: mice infected with lethal dose of Escherichia Coli Juhl
Protocol: (§1) Antibacterial activity of the compounds were tested in a mouse protection assay against Escherichia Coli Juhl, Serratia marcescens and the gram positive bacterium Staphylococcus aureus.

[3] = test system: Serratia marcescens; assay: Mouse protection assay, Serratia marcescens; assay type: in vivo; conditions: mice infected with lethal dose of Serratia marcescens
Protocol: as §1

Sequence of CMP-KDO synthetase (P04951 whole entry): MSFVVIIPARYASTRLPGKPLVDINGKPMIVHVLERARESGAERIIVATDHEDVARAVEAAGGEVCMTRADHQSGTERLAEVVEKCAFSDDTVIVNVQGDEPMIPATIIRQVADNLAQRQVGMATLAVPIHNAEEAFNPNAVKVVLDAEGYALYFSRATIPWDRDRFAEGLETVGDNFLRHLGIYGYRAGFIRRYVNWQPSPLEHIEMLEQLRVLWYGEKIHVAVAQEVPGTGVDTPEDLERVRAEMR

Row | SMILES | IC50 [1] | ED50 [2] | ED50 [3] | IC50 ([1]; pH 9.5, 2 mM KDO, 5 mM magnesium cytidine triphosphate, inorganic pyrophosphatase, read-out: I50)
1 | NC[C@@H](O)[C@H]1OC(O)(C(=O)O)C[C@@H](O)[C@H]1O (stereo partly drawn) [Example 1, 8-Amino-3,8-dideoxy-D-manno-2-octulosonate] | 310 µM | 25 mg/kg | 30 mg/kg | –
2 | NC[C@@H](O)[C@H]1O[C@H](C(=O)O)C[C@@H](O)[C@H]1O [Example 2, α-C-[1,5-anhydro-7-amino-2,7-dideoxy-D-manno-heptopyranosyl]-carboxylate] | 7 µM | 3.1 mg/kg | 6.3 mg/kg | –
3 | NCC(=O)NCC(=O)NC[C@@H](O)[C@H]1O[C@H](C(=O)O)C[C@@H](O)[C@H]1O [Example 3, α-C-[1,5-anhydro-7-(glycyl-glycylamino)-2,7-dideoxy-D-manno-heptopyranosyl]-carboxylate] | 230 µM | 6.3 mg/kg | 12.5 mg/kg | –
4 | CNC[C@@H](O)[C@H]1OC(O)(C(=O)O)C[C@@H](O)[C@H]1O (stereo partly drawn) [Example 4, 8-Methylamino-3,8-dideoxy-D-manno-2-octulosonate] | 81 µM | – | – | –
5 | CN(C)C[C@@H](O)[C@H]1OC(O)(C(=O)O)C[C@@H](O)[C@H]1O (stereo partly drawn) [Example 5, 8-Dimethylamino-3,8-dideoxy-D-manno-2-octulosonate] | 220 µM | – | – | –
6 | CCNC[C@@H](O)[C@H]1OC(O)(C(=O)O)C[C@@H](O)[C@H]1O (stereo partly drawn) [Example 6, 8-Ethylamino-3,8-dideoxy-D-manno-2-octulosonate] | 70 µM | – | – | –
7 | NCC[C@@H](O)[C@H]1O[C@H](C(=O)O)C[C@@H](O)[C@H]1O [Example 7, α-C-[1,5 Anhydro-8-amino-2,7,8-trideoxy-D-mannooctopyranosyl] carboxylate] | – | – | – | 1.9 µM
